Reference: US7781591B2, “Substituted 3-cyanopyridines as protein kinase inhibitors” (Wyeth LLC, priority 2006, dated 2010)

Each molecule was assayed against T1, human PKCθ full length enzyme (Homo sapiens, UniProt Q04759) (assay: PKCθ IMAP assay (fluorescence polarization)). Conditions: human PKCθ full length enzyme, IMAP; average value; read-out: IC50 PKCθ IMAP.
T1 construct: human PKCθ full length enzyme (Panvera Cat# P2996); purchased Panvera P2996
Format: biochemical
Description: The reaction buffer was prepared by diluting the 5× stock reaction buffer and adding DTT to obtain a concentration of 3.0 mM. […] The final concentration of compound was 2× and 10% DMSO. DMSO was added to the rest of the master mix to increase the concentration to 10%. 10 μl of the master mix containing 10% DMSO was added to the rest of the wells on the plate except the 2nd column. 20 μl was transferred from the first column to the 2nd column. The compounds were serially diluted in 2:1 ratio starting from the 2nd column. A 2× ([…]) PKCθ solution was made in the reaction buffer. 10 μl of the PKCθ solution was added to every well to achieve these final concentrations: PKCθ—1 nM; ATP—6 μM; peptide—100 nM; DMSO—5%. Samples were incubated for 25 minutes at room temperature. The binding reagent was prepared by diluting the beads in 1× binding buffer to 800:1. 50 μl of the binding reagent was added to every well and incubated for 20 minutes. FP was measured using Envision2100 (PerkinElmer Life Sciences). Wells with no ATPs and wells with no enzymes were used as controls.

T1 sequence (Q04759 whole entry): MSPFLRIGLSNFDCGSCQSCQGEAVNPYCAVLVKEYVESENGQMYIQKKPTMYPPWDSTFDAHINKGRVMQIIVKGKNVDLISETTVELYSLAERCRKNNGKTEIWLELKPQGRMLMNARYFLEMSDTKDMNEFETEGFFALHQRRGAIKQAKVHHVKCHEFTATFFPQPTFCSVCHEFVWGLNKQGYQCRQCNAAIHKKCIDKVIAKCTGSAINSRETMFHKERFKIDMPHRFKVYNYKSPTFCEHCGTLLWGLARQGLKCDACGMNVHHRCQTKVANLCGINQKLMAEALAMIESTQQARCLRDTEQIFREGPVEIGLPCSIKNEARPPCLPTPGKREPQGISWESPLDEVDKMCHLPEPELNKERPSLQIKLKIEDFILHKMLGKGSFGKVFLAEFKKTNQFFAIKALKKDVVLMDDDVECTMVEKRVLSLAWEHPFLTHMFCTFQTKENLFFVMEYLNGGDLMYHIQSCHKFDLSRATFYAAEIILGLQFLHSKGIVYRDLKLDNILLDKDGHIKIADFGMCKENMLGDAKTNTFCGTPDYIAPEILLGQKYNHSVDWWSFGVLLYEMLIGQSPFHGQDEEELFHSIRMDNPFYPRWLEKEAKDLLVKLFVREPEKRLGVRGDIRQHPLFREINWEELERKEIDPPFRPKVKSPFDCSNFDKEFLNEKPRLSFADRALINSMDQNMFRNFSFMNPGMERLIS

Structure (SMILES)	IC50 [nM]
Cc1c(Nc2c(C#N)cncc2-c2cc3cc(CNCc4ccncc4)ccc3o2)ccc2[nH]ccc12 [Compound 400, 4-[(4-methyl-1H-indol-5-yl)amino]-5-(5-{[(pyridin-4-ylmethyl)amino]methyl}-1-benzofuran-2-yl)nicotinonitrile]	2
Cc1c(Nc2c(C#N)cncc2-c2ccc(CN3CCC(N4CCCCC4)CC3)o2)ccc2[nH]ccc12 [Compound 403, 5-[5-(1,4′-bipiperidin-1′-ylmethyl)-2-furyl]-4-[(4-methyl-1H-indol-5-yl)amino]nicotinonitrile]	5
CCOCCNCCOc1ccc(-c2cncc(C#N)c2Nc2ccc3[nH]ccc3c2C)cc1 [Compound 416, 5-(4-{2-[(2-ethoxyethyl)amino]ethoxy}phenyl)-4-[(4-methyl-1H-indol-5-yl)amino]nicotinonitrile]	6
Cc1c(Nc2c(C#N)cncc2-c2csc(CN3CCN(C)CC3)c2)ccc2[nH]ccc12 [Compound 518, 4-[(4-methyl-1H-indol-5-yl)amino]-5-{5-[(4-methylpiperazin-1-yl)methyl]-3-thienyl}nicotinonitrile]	5
N#Cc1cncc(-c2cc3cc(C=O)ccc3s2)c1Nc1cccc2[nH]ccc12 [Compound 223, 5-(5-formyl-1-benzothien-2-yl)-4-(1H-indol-4-ylamino)nicotinonitrile]	6
Cc1c(Nc2c(C#N)cncc2-c2cc3cc(CN(C)CC(O)CO)ccc3o2)ccc2[nH]ccc12 (stereo not shown) [Compound 386, 5-(5-{[(2,3-dihydroxypropyl)(methyl)amino]methyl}-1-benzofuran-2-yl)-4-[(4-methyl-1H-indol-5-yl)amino]nicotinonitrile]	5
COc1ccc(-c2cncc(C#N)c2Nc2ccc3[nH]ccc3c2C)cc1 [Compound 559, 5-(4-methoxyphenyl)-4-[(4-methyl-1H-indol-5-yl)amino]nicotinonitrile]	6
COc1ccc(-c2cncc(C#N)c2NC[C@H]2CCC[C@@H](CN)C2)cc1OC (relative stereo) [Compound 443, 4-({[cis-3-(aminomethyl)cyclohexyl]methyl}amino)-5-(3,4-dimethoxyphenyl)nicotinonitrile]	1130
Cc1c(Nc2c(C#N)cncc2-c2cc3cc(CN4CCN(c5ccccn5)CC4)ccc3o2)ccc2[nH]ccc12 [Compound 397, 4-[(4-methyl-1H-indol-5-yl)amino]-5-{5-[(4-pyridin-2-ylpiperazin-1-yl)methyl]-1-benzofuran-2-yl}nicotinonitrile]	13
Cc1c(Nc2c(C#N)cncc2-c2ccnc(Cl)c2)ccc2[nH]ccc12 [Compound 469, 2′-chloro-4-[(4-methyl-1H-indol-5-yl)amino]-3,4′-bipyridine-5-carbonitrile]	31
N#Cc1cncc(-c2cccc3c2oc2ccccc23)c1Nc1cccc2[nH]ccc12 [Compound 319, 5-dibenzo[b,d]furan-4-yl-4-(1H-indol-4-ylamino)nicotinonitrile]	60
CN(C)c1ccc(-c2cncc(C#N)c2Nc2ccc3[nH]ncc3c2)cc1 [Compound 292, 5-[4-(dimethylamino)phenyl]-4-(1H-indazol-5-ylamino)nicotinonitrile]	13200
N#Cc1cncc(-c2cccc(-c3ccc(C(=O)N4CCCC4)cc3)c2)c1Nc1ccc2[nH]ccc2c1 [Compound 205, 4-(1H-indol-5-ylamino)-5-[4′-(pyrrolidin-1-ylcarbonyl)biphenyl-3-yl]nicotinonitrile]	510
Cc1c(Nc2c(C#N)cncc2-c2ccnn2C)ccc2[nH]ccc12 [Compound 583, 4-[(4-methyl-1H-indol-5-yl)amino]-5-(1-methyl-1H-pyrazol-5-yl)nicotinonitrile]	61
Cc1c(Nc2c(C#N)cncc2-c2ccc(OCCN3CCOCC3)cc2)ccc2[nH]ccc12 [Compound 351, 4-[(4-methyl-1H-indol-5-yl)amino]-5-[4-(2-morpholin-4-ylethoxy)phenyl]nicotinonitrile]	20
Cc1c(Nc2c(C#N)cncc2-c2cc(C=O)co2)ccc2[nH]ccc12 [Compound 517, 5-(4-formyl-2-furyl)-4-[(4-methyl-1H-indol-5-yl)amino]nicotinonitrile]	8
N#Cc1cncc(-c2cc3ccccc3o2)c1Nc1ccc2[nH]ncc2c1 [Compound 373, 5-(1-benzofuran-2-yl)-4-(1H-indazol-5-ylamino)nicotinonitrile]	1000
CC(=O)Nc1cccc(-c2cncc(C#N)c2Nc2ccc3[nH]ccc3c2C)c1 [Compound 578, N-(3-{5-cyano-4-[(4-methyl-1H-indol-5-yl)amino]pyridin-3-yl}phenyl)acetamide]	97
Cc1c(Nc2c(C#N)cncc2-c2ccc([N+](=O)[O-])cc2)ccc2[nH]ccc12 [Compound 570, 4-[(4-methyl-1H-indol-5-yl)amino]-5-(4-nitrophenyl)nicotinonitrile]	16

Structure (SMILES)	IC50 [nM]
Cc1c(Nc2c(C#N)cncc2-c2cc3cc(C4OCCCO4)ccc3o2)ccc2[nH]ccc12 [Compound 370, 5-[5-(1,3-dioxan-2-yl)-1-benzofuran-2-yl]-4-[(4-methyl-1H-indol-5-yl)amino]nicotinonitrile]	4
Cc1c(Nc2c(C#N)cncc2-c2ccc(CN3CCN(C)CC3)o2)ccc2[nH]ccc12 [Compound 468, 4-[(4-methyl-1H-indol-5-yl)amino]-5-{5-[(4-methylpiperazin-1-yl)methyl]-2-furyl}nicotinonitrile]	4
COc1ccc(-c2cncc(C#N)c2Nc2ccc3[nH]ccc3c2)cc1OCCNCc1cccnc1 [Compound 239, 4-(1H-indol-5-ylamino)-5-(4-methoxy-3-{2-[(pyridin-3-ylmethyl)amino]ethoxy}phenyl)nicotinonitrile]	80
COc1ccc(-c2cncc(C#N)c2Nc2ccc3[nH]ccc3c2)cc1OCCN1CCCCC1 [Compound 235, 4-(1H-indol-5-ylamino)-5-[4-methoxy-3-(2-piperidin-1-ylethoxy)phenyl]nicotinonitrile]	240
Cc1c(Nc2c(C#N)cncc2-c2ccc(OCCCN(C)C)nc2)ccc2[nH]ccc12 [Compound 357, 6′-[3-(dimethylamino)propoxy]-4-[(4-methyl-1H-indol-5-yl)amino]-3,3′-bipyridine-5-carbonitrile]	30
COc1ccc(-c2cncc(C#N)c2Nc2ccc3[nH]c(C)cc3c2C)cc1OC [Compound 549, 5-(3,4-dimethoxyphenyl)-4-[(2,4-dimethyl-1H-indol-5-yl)amino]nicotinonitrile]	10
Cc1c(Nc2c(C#N)cncc2-c2cccc(CN3CCOCC3)c2)ccc2[nH]ccc12 [Compound 456, 4-[(4-methyl-1H-indol-5-yl)amino]-5-[3-(morpholin-4-ylmethyl)phenyl]nicotinonitrile]	23
COc1ccc(-c2cncc(C#N)c2Nc2ccc3[nH]ccc3c2)cc1OCCN(C)C [Compound 236, 5-{3-[2-(dimethylamino)ethoxy]-4-methoxyphenyl}-4-(1H-indol-5-ylamino)nicotinonitrile]	200
COc1ccc(-c2cncc(C#N)c2Nc2ccc3[nH]ccc3c2)cc1-c1ccc(C(=O)NC2CCCC2)cc1 [Compound 192, 5′-[5-cyano-4-(1H-indol-5-ylamino)pyridin-3-yl]-N-cyclopentyl-2′-methoxybiphenyl-4-carboxamide]	280
N#Cc1cncc(-c2cccnc2)c1Nc1ccc2[nH]ccc2c1 [Compound 259, 4-(1H-indol-5-ylamino)-3,3′-bipyridine-5-carbonitrile]	1370
CNC(=O)c1ccc(-c2cncc(C#N)c2Nc2ccc3[nH]ccc3c2C)cc1 [Compound 580, 4-{5-cyano-4-[(4-methyl-1H-indol-5-yl)amino]pyridin-3-yl}-N-methylbenzamide]	16
Cc1c(Nc2c(C#N)cncc2-c2ccc(CN3CCC(N4CCOCC4)CC3)o2)ccc2[nH]ccc12 [Compound 405, 4-[(4-methyl-1H-indol-5-yl)amino]-5-{5-[(4-morpholin-4-ylpiperidin-1-yl)methyl]-2-furyl}nicotinonitrile]	9
COc1ccccc1-c1cncc(C#N)c1Nc1ccc2[nH]ccc2c1C [Compound 557, 5-(2-methoxyphenyl)-4-[(4-methyl-1H-indol-5-yl)amino]nicotinonitrile]	82
N#Cc1cncc(-c2ccncc2)c1Nc1ccc2[nH]ccc2c1 [Compound 261, 4-(1H-indol-5-ylamino)-3,4′-bipyridine-5-carbonitrile]	80
COCCOc1ccc(-c2cncc(C#N)c2Nc2cnc3[nH]ccc3c2Cl)cc1OC [Compound 492, 4-[(4-chloro-1H-pyrrolo[2,3-b]pyridin-5-yl)amino]-5-[3-methoxy-4-(2-methoxyethoxy)phenyl]nicotinonitrile]	61
COc1ccc(-c2cncc(C#N)c2NCCCN2CCN(C)CC2)cc1OC [Compound 440, 5-(3,4-dimethoxyphenyl)-4-{[3-(4-methylpiperazin-1-yl)propyl]amino}nicotinonitrile]	14300
COc1ccc(-c2cncc(C#N)c2NCCC2CCN(C)CC2)cc1OC [Compound 447, 5-(3,4-dimethoxyphenyl)-4-{[2-(1-methylpiperidin-4-yl)ethyl]amino}nicotinonitrile]	1930
COCCNC(=O)c1ccc(-c2cccc(-c3cncc(C#N)c3Nc3ccc4[nH]ccc4c3)c2)cc1 [Compound 200, 3′-[5-cyano-4-(1H-indol-5-ylamino)pyridin-3-yl]-N-(2-methoxyethyl)biphenyl-4-carboxamide]	190
